The target of the experiment is T1, human leukocyte elastase (HLE) (Homo sapiens, UniProt P08246).
T1 construct: CEREP (contract assay)
T1 sequence (P08246 30-267): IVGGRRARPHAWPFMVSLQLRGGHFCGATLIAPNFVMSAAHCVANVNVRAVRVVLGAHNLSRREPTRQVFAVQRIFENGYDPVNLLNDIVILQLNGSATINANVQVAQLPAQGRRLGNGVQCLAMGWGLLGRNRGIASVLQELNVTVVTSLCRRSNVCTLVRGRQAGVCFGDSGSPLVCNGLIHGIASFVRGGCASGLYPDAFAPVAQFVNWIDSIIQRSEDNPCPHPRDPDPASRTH
Description: Human Elastase Assay test (CEREP catalog), photometry. In kind it is biochemical. As to conditions: for inhibition at 1000 µM: compound at 1 mM, reference substrate MeOSAAPV-pNa at 0.1 mM, photometry, read-out: Elastase inhibition activity (conc 1 mM); for IC50: human elastase, read-out: IC50 (concentration that produces 50% inhibition of the human elastase activity). On the procedure:
The molecules have been evaluated in vitro on a Human Elastase Assay test, available in the CEREP catalog.
The results are expressed as a percentage of activity versus a specific control (activity measured with compounds of the invention/control activity without the compound of the invention)×100.
The control is the enzymatic activity of human leukocyte elastase (HLE) on a reference substrate (MeOSAAPV-pNa at 0.1 mM).
The detection method used is photometry.
This method is described in the literature: Adeyemi et al 1990, J. Pharm. Pharmacol. 42, 487-490.
The concentration that produces 50% inhibition of the human elastase activity (IC50) was measured.

On to `CC(=O)N(c1cccc(O)c1)[C@H](C(=O)NCC(=O)O)C(C)C` [Compound 7, N-ACETYL-N-(3-HYDROXYPHENYL)VALYLGLYCINE], for which the inhibition at 1000 µM turned out to be 62%. As for `CCOC(=O)c1cc(N(C(C)=O)[C@H](C(=O)NCC(=O)O)C(C)C)ccc1O` [Compound 5, N-ACETYL-N-[3-(ETHOXYCARBONYL)-4-HYDROXYPHENYL]VALYLGLYCINE], the inhibition at 1000 µM is 62%. Regarding `COC(=O)c1cc(C(=O)OC)cc(N(C(C)=O)C(C(=O)NCC(=O)O)C(C)C)c1` (centres unmarked) [Compound 6, N-ACETYL-N-[3,5-BIS(METHOXYCARBOXY)PHENYL]VALYLGLYCINE], the inhibition at 1000 µM is 65%. Regarding `CC(=O)N(c1ccc(C(=O)O)c(O)c1)[C@H](C(=O)NCC(=O)O)C(C)C` [Compound 1, N-ACETYL-N-(4-CARBOXY-3-HYDROXYPHENYL)VALYLGLYCINE], the inhibition at 1000 µM was determined as 98%.

As to `CC(=O)N(c1cccc(C#N)c1)C(C(=O)NCC(=O)O)C(C)C` (centres unmarked) [Compound 4], the inhibition at 1000 µM amounted to 35% and the IC50 amounted to 5.6 mM. For the same compound, the “effectiveness for inhibiting elastase activity compared with the compound of the prior art” value (comparison in words) was “clearly more effective than the compound of the prior art”. Turning to `CC(=O)N(c1ccc(C(=O)O)cc1)C(C(=O)NCC(=O)O)C(C)C` (centres unmarked) [Compound 8], the inhibition at 1000 µM is 88%. The same measure, in the same setting: the figure for `CC(=O)N(c1cc(C(=O)O)cc(C(=O)O)c1)[C@H](C(=O)NCC(=O)O)C(C)C` [Compound 3, N-ACETYL-N-(3,5-DICARBOXYPHENYL)VALYLGLYCINE] is 98%; for `CC(=O)N(c1ccc(C(=O)O)c(C(=O)O)c1)[C@H](C(=O)NCC(=O)O)C(C)C` [Compound 2, N-ACETYL-N-(3,4-DICARBOXYPHENYL)VALYLGLYCINE] it is 98%.

For the compound `CC(=O)N(c1cccc(C(F)(F)F)c1)C(C(=O)NCC(=O)O)C(C)C` (centres unmarked) [Z, reference compound], the IC50 amounted to 6.38 mM.

The inhibition is the relative decrease from the control value, in per cent.
